A word on the IC50: it is the concentration needed to halve the response being measured.

T1 sequence (P04629 440-796 limits assumed): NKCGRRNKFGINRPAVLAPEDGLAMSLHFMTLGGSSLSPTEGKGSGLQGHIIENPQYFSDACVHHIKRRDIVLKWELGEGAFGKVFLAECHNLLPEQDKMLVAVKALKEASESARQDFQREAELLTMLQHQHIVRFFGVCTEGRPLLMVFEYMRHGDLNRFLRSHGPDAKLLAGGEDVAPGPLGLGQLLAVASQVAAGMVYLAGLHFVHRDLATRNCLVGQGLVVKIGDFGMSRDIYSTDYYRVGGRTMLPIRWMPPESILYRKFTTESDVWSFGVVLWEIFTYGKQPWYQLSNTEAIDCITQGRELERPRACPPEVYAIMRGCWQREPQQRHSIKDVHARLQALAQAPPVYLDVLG

One assay has as its target T1, baculovirus-expressed human trkA cytoplasmic domain (Homo sapiens, UniProt P04629).
T1 construct: baculovirus-expressed human trkA cytoplasmic domain; made in house; host or cells: baculovirus expression system
Nature of the assay: Inhibition of trkA tyrosine kinase activity (ELISA-based assay). Format: biochemical. To be noted: 300 nM compound. As for the experimental part:
Selected cyclic substituted fused pyrrolocarbazole and isoindolone compounds were tested for their ability to inhibit the kinase activity of baculovirus-expressed human trkA cytoplasmic domain using an ELISA-based assay as previously described (Angeles et al., Anal. Biochem. 236: 49-55, 1996). Briefly, the 96-well microtiter plate was coated with substrate solution (recombinant human phospholipase C-γ1/glutathione S-transferase fusion protein (Rotin et al., EMBO J., 11: 559-567, 1992). Inhibition studies were performed in 100 μl assay mixtures containing 50 mM Hepes, pH 7.4, 40 μM ATP, 10 mM MnCl2, 0.1% BSA, 2% DMSO, and various concentrations of inhibitor. The reaction was initiated by addition of trkA kinase and allowed to proceed for 15 minutes at 37° C. An antibody to phosphotyrosine (UBI) was then added, followed by a secondary enzyme-conjugated antibody, alkaline phosphatase-labelled goat antII-mouse IgG (Bio-Rad). The activity of the bound enzyme was measured via an amplified detection system (Gibco-BRL). Inhibition data were analyzed using the sigimoidal dose-response (variable slope) equation in GraphPad Prism.
Background: ELISA stands for enzyme-linked immunosorbent assay.
Regarding `O=C1NCc2c1c1c(c3[nH]c4ccccc4c23)C(C2(O)CCC2)c2ccccc2-1` (stereo not drawn) [II-18], the “trkA kinase activity % Inh. @ 300 nM (values in parentheses)” value (from here on “trkA kinase activity % Inh. @ 300 nM”) is reported as “(45) %”.

Consider `CC1(C2c3ccccc3-c3c4c(c5c([nH]c6ccccc65)c32)CNC4=O)CCCO1` (single isomer, unassigned) [II-30b], for which the “trkA kinase activity % Inh. @ 300 nM” value was “(32) %”.

As to `O=C1NCc2c1c1c(c3[nH]c4ccccc4c23)C(C2CCCC2)c2ccccc2-1` (single isomer, unassigned) [II-59], the “trkA kinase activity % Inh. @ 300 nM” value is reported as “(10) %”.

Turning to `C=C1COC(C)(C2c3ccccc3-c3c4c(c5c([nH]c6ccccc65)c32)CNC4=O)C1` (mixture of isomers) [II-25], the “trkA kinase activity % Inh. @ 300 nM” value is “(27) %”.

On to `CC1(C)OC2CC(O)(C3c4ccccc4-c4c5c(c6c([nH]c7ccccc76)c43)CNC5=O)OC2O1` (mixture of isomers) [II-48], for which the “trkA kinase activity % Inh. @ 300 nM” value is reported as “(46) %”.

With `CCOC(=O)C1C(=O)CCC1C1c2ccccc2-c2c3c(c4c([nH]c5ccccc54)c21)C(=O)NC3=O` (single isomer, unassigned) [II-56], the “trkA kinase activity % Inh. @ 300 nM” value is reported as “(12) %”.

With `CCOCc1ccc2c(c1)c1c3c(c4c(c1n2CC1CO1)Cc1ccccc1-4)C(=O)NC3` (racemic) [II-58], the “trkA kinase activity % Inh. @ 300 nM” value was “(23) %”.

Consider `CC(=O)N1CCC(O)(C2c3ccccc3-c3c4c(c5c([nH]c6ccccc65)c32)CNC4=O)CC1` (stereo not drawn) [II-24], for which the “trkA kinase activity % Inh. @ 300 nM” value is listed as “(34) %”.

Turning to `CCN1CCCC(O)(C2c3ccccc3-c3c4c(c5c([nH]c6ccccc65)c32)CNC4=O)C1` (mixture of isomers) [II-16], the “trkA kinase activity % Inh. @ 300 nM” value was “(38) %”.

Staying with this assay, now noted: 40 μM ATP.
In the case of `CC1(C2c3ccccc3-c3c4c(c5c([nH]c6ccccc65)c32)C(=O)NC4)CCCO1` (stereo not drawn) [II-37], the IC50 was found to be 191 nM.

In turn, `O=C1CCCC(C2c3ccccc3-c3c4c(c5c([nH]c6ccccc65)c32)CNC4=O)O1` (stereo not drawn) [II-05] had an IC50 of 130 nM.

The compound `O=C1NCc2c1c1c(c3[nH]c4ccccc4c23)C(C2(O)CCCCC2)c2ccccc2-1` (stereo not drawn) [II-50] registered an IC50 of 113 nM.

The compound `O=C1NCc2c1c1c(c3[nH]c4ccccc4c23)C(C2CCCCO2)c2ccccc2-1` (stereo not drawn) [II-13] yielded an IC50 of 186 nM.

The compound `C=CC1(C2c3ccccc3-c3c4c(c5c([nH]c6ccccc65)c32)CNC4=O)CCCO1` (stereo not drawn) [II-28] returned an IC50 of 138 nM.

Regarding `O=C1NCc2c1c1c(c3[nH]c4ccccc4c23)C(C2(c3cccs3)CCCO2)c2ccccc2-1` (stereo not drawn) [II-09], the half-maximal inhibitory concentration (IC50) stood at 134 nM. This IC50 and that of the compound before are within 1.5-fold of each other.

As for `O=C1NCc2c1c1c(c3c2c2ccccc2n3CC2CO2)Cc2ccccc2-1` (racemic) [II-01a], it took 92 nM to reach half-maximal inhibition (IC50). This IC50 and that of the compound before are within 1.5-fold of each other.

In turn, `O=C1CCC(C2c3ccccc3-c3c4c(c5c([nH]c6ccccc65)c32)CNC4=O)=NN1` (stereo not drawn) [II-49] came in with an IC50 of 321 nM.

Compound `CC(=O)OCC1(C2c3ccccc3-c3c4c(c5c([nH]c6ccccc65)c32)CNC4=O)CCCO1` (stereo not drawn) [II-22] registered an IC50 of 95 nM.

Turning to `O=C1NCc2c1c1c(c3[nH]c4ccccc4c23)C(C2OCCC2O)c2ccccc2-1` (mixture of isomers) [II-43], the IC50 worked out at 110 nM.

As for `CC1(C2c3ccccc3-c3c4c(c5c([nH]c6ccccc65)c32)CNC4=O)CCCCO1` (stereo not drawn) [II-12], the IC50 came to 241 nM.

The compound `COCCOCOCC1(C2c3ccccc3-c3c4c(c5c([nH]c6ccccc65)c32)CNC4=O)CCC(=O)O1` (mixture of isomers) [II-31] had an IC50 of 173 nM.

For `O=C1NCc2c1c1c(c3[nH]c4ccccc4c23)C(C2CSCC2O)c2ccccc2-1` (stereo not drawn) [II-11], the IC50 stood at 139 nM.

For the compound `CCOC1CCC(C2c3ccccc3-c3c4c(c5c([nH]c6ccccc65)c32)CNC4=O)O1` (stereo not drawn) [II-40a], 54 nM corresponded to half-maximal inhibition (IC50).

On to `CC1(C2c3ccccc3-c3c4c(c5c([nH]c6ccccc65)c32)CNC4=O)CC(=O)CO1` (stereo not drawn) [II-27], for which the IC50 came out at 166 nM.
